Experimental data published in ChEMBL document CHEMBL4706719, “Androgen Receptor Degradation for Therapeutic Intervention of Prostate Cancer Drug Resistance” (ACS Med Chem Lett, 2021).

The compounds below were run against Androgen receptor (Homo sapiens) (UniProt P10275) (assay: In vivo inhibition of AR in castrated CB17 mouse xenografted with human VCaP cells at 10 mg/kg, po via gavage measured after 16 hrs by ELISA relative to control).

Row | Compound | inhibition [%]
1 | CC1(C)[C@H](NC(=O)c2cc(F)c(CCOCCCN3CCN(c4ccc5c(c4)C(=O)N(C4CCC(=O)NC4=O)C5=O)CC3)c(F)c2)C(C)(C)[C@H]1Oc1ccc(C#N)c(Cl)c1 (stereo partly specified) | < 50
2 | CC1(C)[C@H](NC(=O)c2ccc(N3CCC(CN4CCN(c5ccc6c(c5F)C(=O)N(C5CCC(=O)NC5=O)C6=O)CC4)CC3)cc2)C(C)(C)[C@H]1Oc1ccc(C#N)c(Cl)c1 (stereo partly specified) | > 50
3 | CC1(C)[C@H](NC(=O)c2ccc(N3CCC(CN4CCN(c5cc6c(cc5F)C(=O)N(C5CCC(=O)NC5=O)C6=O)CC4)CC3)c(F)c2)C(C)(C)[C@H]1Oc1ccc(C#N)c(Cl)c1 (stereo partly specified) | > 50
4 | CC(C)N(CC1CCN(c2ccc(C(=O)N[C@H]3C(C)(C)[C@H](Oc4ccc(C#N)c(Cl)c4)C3(C)C)cc2)CC1)[C@H]1C[C@H](Oc2ccc3c(c2)C(=O)N(C2CCC(=O)NC2=O)C3=O)C1 (stereo partly specified) | > 50
5 | CC1(C)[C@H](NC(=O)c2ccc(N3CCC(CN4CCN(c5cc6c(cc5F)C(=O)N(C5CCC(=O)NC5=O)C6=O)CC4)CC3)nn2)C(C)(C)[C@H]1Oc1ccc(C#N)c(Cl)c1 (stereo partly specified) | > 50
6 | CC1(C)[C@H](NC(=O)c2ccc(N3CCC(CN4CCN(c5ccc6c(c5)C(=O)N(C5CCC(=O)NC5=O)C6=O)CC4)CC3)nn2)C(C)(C)[C@H]1Oc1ccc(C#N)c(Cl)c1 (stereo partly specified) | < 50

Next, values leading:

Row | inhibition [%] | Compound
7 | > 50 | CC1(C)[C@H](NC(=O)c2cnc(N3CCN(CCCOc4ccc5c(c4)C(=O)N(C4CCC(=O)NC4=O)C5=O)CC3)cn2)C(C)(C)[C@H]1Oc1ccc(C#N)c(Cl)c1 (stereo partly specified)
8 | > 50 | CC1(C)[C@H](NC(=O)c2ccc(N3CCN(CCCCCOc4ccc5c(c4)C(=O)N(C4CCC(=O)NC4=O)C5=O)CC3)nc2)C(C)(C)[C@H]1Oc1ccc(C#N)c(C#N)c1 (stereo partly specified)
9 | > 50 | CC1(C)[C@H](NC(=O)c2ccc(CCN3CCN(c4ccc5c(c4)C(=O)N(C4CCC(=O)NC4=O)C5=O)CC3)cc2)C(C)(C)[C@H]1Oc1ccc(C#N)c(Cl)c1 (stereo partly specified)
10 | > 50 | CC1(C)[C@H](NC(=O)c2ccc(N3CCN(CCCOc4ccc5c(c4)C(=O)N(C4CCC(=O)NC4=O)C5=O)CC3)cc2)C(C)(C)[C@H]1Oc1ccc(C#N)c(Cl)c1 (stereo partly specified)
11 | > 50 | CC1(C)[C@H](NC(=O)c2ccc(N3CCN(CCCCCOc4ccc5c(c4)C(=O)N([C@H]4CCC(=O)NC4=O)C5=O)CC3)nc2)C(C)(C)[C@H]1Oc1ccc(C#N)c(Cl)c1
